According to ChEMBL document CHEMBL1145252, “Macrolactonization catalyzed by the terminal thioesterase domain of the nonribosomal peptide synthetase responsible for lichenysin biosynthesis” (Bioorg Med Chem Lett, 2005):

What was measured:
[1] = Michaelis-Menten constant for the hydrolysis of the lipopeptide SNAC by the licC thioesterase
[2] = Michaelis-Menten constant for the cyclization of the lipopeptide SNAC by the licC thioesterase
[3] = Michaelis-Menten constant for the cyclization of the lipopeptide SNAC by the licC thioesterase; nd = not determined.
[4] = Ratio of Michaelis-Menten constant to that of catalytic activity by the licC thioesterase
[5] = Catalytic activity for the hydrolysis of the lipopeptide SNAC by the licC thioesterase
[6] = Catalytic activity for the hydrolysis of the lipopeptide SNAC by the thioesterase
[7] = Catalytic activity for the cyclization of the lipopeptide SNAC by the surfactin thioesterase

Km [1] [µM] | Km [2] [µM] | Compound | also measured
8.05 | 9.35 | CC[C@H](C)[C@H](NC(=O)[C@@H](CC(C)C)NC(=O)[C@H](CC(=O)O)NC(=O)[C@H](C)NC(=O)[C@@H](CC(C)C)NC(=O)[C@H](CC(C)C)NC(=O)[C@H](CCC(N)=O)NC(=O)C[C@@H](C)O)C(=O)SCCNC(C)=O | 
12 |  | CC[C@H](C)[C@H](NC(=O)[C@@H](CC(C)C)NC(=O)[C@H](CC(=O)O)NC(=O)[C@@H](NC(=O)[C@@H](CC(C)C)NC(=O)[C@H](CC(C)C)NC(=O)[C@H](CCC(N)=O)NC(=O)C[C@H](C)O)C(C)C)C(=O)SCCNC(C)=O | Km [3]: Not detected; Ratio [4]: 19.5; K cat [5]: 3.89 s⁻¹
8.13 | 6.83 | CC[C@H](C)[C@H](NC(=O)[C@@H](CC(C)C)NC(=O)[C@H](CC(=O)O)NC(=O)[C@@H](NC(=O)[C@@H](CC(C)C)NC(=O)[C@H](CC(C)C)NC(=O)[C@H](CCC(N)=O)NC(=O)C[C@@H](C)O)C(C)C)C(=O)SCCNC(C)=O | K cat [6]: 1.57 s⁻¹; K cat [7]: 1.77 s⁻¹

Continued, compound first:

Compound | Km [1] [µM] | Km [2] [µM] | also measured
CC[C@H](C)[C@H](NC(=O)[C@@H](CC(C)C)NC(=O)[C@H](CC(=O)O)NC(=O)[C@@H](NC(=O)[C@@H](CC(C)C)NC(=O)[C@H](CC(C)C)NC(=O)[C@H](CCC(N)=O)NC(=O)CCN)C(C)C)C(=O)SCCNC(C)=O | 9.41 |  | Km [3]: Not detected; Ratio [4]: 17.3; K cat [5]: 2.71 s⁻¹
CC[C@H](C)[C@H](NC(=O)[C@@H](C)NC(=O)[C@H](CC(=O)O)NC(=O)[C@@H](NC(=O)[C@@H](CC(C)C)NC(=O)[C@H](CC(C)C)NC(=O)[C@H](CCC(N)=O)NC(=O)C[C@@H](C)O)C(C)C)C(=O)SCCNC(C)=O | 263 | 257 | 
CC[C@H](C)[C@H](NC(=O)[C@@H](CC(C)C)NC(=O)[C@H](CC(=O)O)NC(=O)[C@@H](NC(=O)[C@@H](C)NC(=O)[C@H](CC(C)C)NC(=O)[C@H](CCC(N)=O)NC(=O)C[C@@H](C)O)C(C)C)C(=O)SCCNC(C)=O | 4.86 | 5.1 | 
CC(=O)NCCSC(=O)[C@H](C)NC(=O)[C@@H](CC(C)C)NC(=O)[C@H](CC(=O)O)NC(=O)[C@@H](NC(=O)[C@@H](CC(C)C)NC(=O)[C@H](CC(C)C)NC(=O)[C@H](CCC(N)=O)NC(=O)C[C@@H](C)O)C(C)C | 191 |  | 
CC[C@H](C)[C@H](NC(=O)[C@@H](CC(C)C)NC(=O)[C@H](CC(=O)O)NC(=O)[C@@H](NC(=O)[C@@H](CC(C)C)NC(=O)[C@H](C)NC(=O)[C@H](CCC(N)=O)NC(=O)C[C@@H](C)O)C(C)C)C(=O)SCCNC(C)=O | 16.9 | 15.2 | 
CC[C@H](C)[C@H](NC(=O)[C@@H](CC(C)C)NC(=O)[C@H](CC(=O)O)NC(=O)[C@@H](NC(=O)[C@@H](CC(C)C)NC(=O)[C@H](CC(C)C)NC(=O)[C@H](C)NC(=O)C[C@@H](C)O)C(C)C)C(=O)SCCNC(C)=O | 29 | 29.9 | 
CC[C@H](C)[C@H](NC(=O)[C@@H](CC(C)C)NC(=O)[C@H](C)NC(=O)[C@@H](NC(=O)[C@@H](CC(C)C)NC(=O)[C@H](CC(C)C)NC(=O)[C@H](CCC(N)=O)NC(=O)C[C@@H](C)O)C(C)C)C(=O)SCCNC(C)=O | 8.17 |  | 
